According to publication PMC8933493, “Mechanism and biomass association of glucuronoyl esterase: an α/β hydrolase with potential in biomass conversion” (Nature Communications, 2022):

Legend:
OtCE15A [1] = molecular target: T1, OtCE15A (Opitutus terrae, UniProt B1ZMF4); assay: continuous coupled assay, K-URONIC kit (Megazyme); type: biochemical; conditions: duplicate, at least 8 substrate concentrations
T1 construct: gene Oter_0116; His6-tag; no CBM; E. coli BL21(DE3); IMAC and size exclusion; active-site Ser267, Arg268, Glu290, Asp356, His408
Text: continuous coupled assay, K-URONIC kit (Megazyme) on OtCE15A

OtCE15A [2] = molecular target: T1, OtCE15A; assay: continuous coupled assay, K-URONIC kit; Arrhenius analysis of kcat; type: biochemical; conditions: 20 to 40 °C in 5 °C steps
OtCE15A [3] = molecular target: T2, OtCE15A (Opitutus terrae, UniProt B1ZMF4, R268A); assay: X-ray crystal structure after […] s soak in saturated BnzGlcA; type: binding; conditions: covalent; glucuronoyl acyl-enzyme intermediate formed from the soaked substrate; pH 6.5 crystals, 10% DMSO
T2 construct: gene Oter_0116; His6-tag; no CBM; E. coli BL21(DE3); IMAC and size exclusion; active-site Ser267, Arg268, Glu290, Asp356, His408
T2 sequence (B1ZMF4 entry or part of it R268A): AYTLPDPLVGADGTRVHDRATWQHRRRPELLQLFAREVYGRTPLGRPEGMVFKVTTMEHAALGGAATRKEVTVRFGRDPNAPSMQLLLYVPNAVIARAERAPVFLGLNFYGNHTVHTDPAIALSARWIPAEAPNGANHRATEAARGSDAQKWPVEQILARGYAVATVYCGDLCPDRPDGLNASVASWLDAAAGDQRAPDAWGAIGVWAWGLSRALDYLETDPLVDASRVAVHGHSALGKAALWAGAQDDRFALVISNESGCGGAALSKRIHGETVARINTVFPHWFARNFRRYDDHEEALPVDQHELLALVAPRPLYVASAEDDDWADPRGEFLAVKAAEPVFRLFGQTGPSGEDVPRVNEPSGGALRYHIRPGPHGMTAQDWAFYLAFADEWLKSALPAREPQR

T1 sequence (B1ZMF4 entry or part of it): as the sequence (B1ZMF4 entry or part of it R268A) above, with A236R counted along it

Km (OtCE15A [1]) [mM] | Structure (SMILES) | continuous coupled assay, K-URONIC kit; Arrhenius analysis of kcat (OtCE15A [2]) | X-ray crystal structure after 30 s soak in saturated BnzGlcA (OtCE15A [3])
2.77 ± 0.15 | COC(=O)[C@H]1OC(O)[C@H](O)[C@@H](O)[C@@H]1O (stereo partly drawn) [MeGlcA, GlcA methyl ester] | – | –
– | O=C(OCc1ccccc1)[C@H]1OC(O)[C@H](O)[C@@H](O)[C@@H]1O (stereo partly drawn) [BnzGlcA, benzyl GlcA] | small substrate benzyl GlcA (BnzGlcA) by determining kcat at different temperatures | after soaking with the BnzGlcA substrate clearly shows the formation of a CI
